≈ marks a conversion by molar mass, not a printed value.
What was measured:
[1] = tested on: Escherichia coli; assay: in vitro antibacterial evaluation, MIC by broth dilution; format: cell-based; conditions: 18 hours at 35° C.
In short: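 Broth dilution MIC per NCCLS M7-A2 in Mueller-Hinton II medium, inoculum 5×10^5 CFU/mL, antibiotic range 64-0.06 μg/mL. MIC taken as lowest concentration inhibiting growth.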

[2] = tested on: Enterococcus sp.; assay: as above; format: cell-based; conditions: broth dilution, 18 hours at 35° C.
In short: (§1)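 MIC = lowest antibiotic concentration preventing visible growth; inoculum 5×10^5 CFU/mL; drug range 64-0.06 μg/mL; Muller-Hinton II […]; NCCLS M7-A2 guidance.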

[3] = tested on: Staphylococcus sp.; assay: as above; format: cell-based; conditions: broth dilution, 18 hours at 35° C.; for MIC Staphylococcus aureus (GC 1131): strain GC 1131; for MIC Staphylococcus aureus (GC 3053): strain GC 3053; for MIC Staphylococcus aureus (GC 4541): strain GC 4541; for MIC Staphylococcus aureus-SMITH (GC 4543): strain GC 4543; for MIC Staphylococcus aureus (GC 4544): strain GC 4544; for MIC Staphylococcus aureus (GC 4545): strain GC 4545; for MIC Staphylococcus haemolyticus (GC 4546): strain GC 4546; for MIC Coagulase Negative Staphylococcus (GC 4547): strain GC 4547; for MIC Coagulase Negative Staphylococcus (GC 4548): strain GC 4548; for MIC Coagulase Negative Staphylococcus (GC 4549): strain GC 4549; for MIC Coagulase Negative Staphylococcus (GC 4551): strain GC 4551; for MIC Coagulase Negative Staphylococcus (GC 6257): strain GC 6257
In short: as §1

[4] = tested on: Streptococcus sp.; assay: as above; format: cell-based; conditions: broth dilution, 18 hours at 35° C.
In short: as §1

[5] = anatomic pathology (histopathology of heart and kidney) in mice; format: in vivo; conditions: CD-1 mice, 20 mg/kg intravenously daily for 9 days, necropsy day 10, microscopic histopathology
Method: Samples of tissues from necropsied mice were formalin-fixed, paraffin-embedded, sectioned, stained with hematoxylin and eosin, and examined microscopically. Histopathologic findings were recorded. These findings were subjectively graded on a scale corresponding to slight, mild, moderate, marked and severe as compared to untreated controls.

[6] = tested on: Staphylococcus aureus-SMITH (GC 4543); assay: acute lethal infection in mice; format: in vivo; conditions: acute lethal infection, female CD-1 mice, intraperitoneal challenge, intravenous 30 min. after infection, 7 day survival
In short: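 Female CD-1 mice (20+/−2 gm) were infected intraperitoneally with enough bacteria, suspended in trypticase soy broth or hog gastric mucin, to kill untreated controls within 24-48 hr. Compound in saline or 5% dextrose was given intravenously 30 min post-infection, five mice per dose. ED50 came from pooled 7 day survival of 3 tests.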

[7] = Enterococcus faecalis (ATCC 29212)
[8] = Enterococcus faecalis (GC 4552)
[9] = Enterococcus faecalis (GC 4553)
[10] = Enterococcus faecalis (GC 6189)

CC(c1ccccc1)C1NC(=O)CNC(=O)C(CO)NC(=O)C(C(O)C2CN(Cc3ccc4ccccc4c3)C(=N)N2C2OC(CO)C(O)C(O)C2O)NC(=O)C(C(O)C2CNC(=N)N2)NC(=O)C(Cc2ccc(OC3OC(CO)C(OC4OC5COC6(OC5C(O)C4O)C4CC5CC(C4)CC6C5)C(O)C3O)cc2)NC1=O (stereo not drawn) [Example 78, Cyclo[glycyl-β-methylphenylalanyl-O-[4-O-[4,6-O-(2-adamantylidene)hexopyranosyl]hexopyranosyl]tyrosyl-3-(2-iminoimidazolidin-4-yl)seryl-3-[3-hexopyranosyl-2-imino-1-(2-naphthylmethyl)-imidazolidin-4-yl]serylseryl]]
MIC Escherichia coli (ATCC 25922) [1]: 128 µg/mL (≈ 81.6 µM)
MIC Escherichia coli (GC 4559) [1]: 128 µg/mL (≈ 81.6 µM)
MIC Escherichia coli (GC 4560) [1]: 4 µg/mL (≈ 2.55 µM)
MIC Enterococcus avium (GC 4558) ([2]; Enterococcus avium (GC 4558)): 4 µg/mL (≈ 2.55 µM)
MIC Enterococcus faecalis (ATCC 29212) [2, 7]: 8 µg/mL (≈ 5.1 µM)
MIC Enterococcus faecalis (GC 4552) [2, 8]: 8 µg/mL (≈ 5.1 µM)
MIC Enterococcus faecalis (GC 4553) [2, 9]: 8 µg/mL (≈ 5.1 µM)
MIC Enterococcus faecalis (GC 4554) ([2]; Enterococcus faecalis (GC 4554)): 16 µg/mL (≈ 10.2 µM)
MIC Enterococcus faecalis (GC 6189) [2, 10]: 16 µg/mL (≈ 10.2 µM)
MIC Enterococcus faecium (GC 2243) ([2]; Enterococcus faecium (GC 2243)): 8 µg/mL (≈ 5.1 µM)
MIC Enterococcus faecium (GC 4556) ([2]; Enterococcus faecium (GC 4556)): 16 µg/mL (≈ 10.2 µM)
MIC Enterococcus faecium (GC 4557) ([2]; Enterococcus faecium (GC 4557)): 2 µg/mL (≈ 1.28 µM)
MIC Enterococcus avium (GC 4558) [2]: 4 µg/mL (≈ 2.55 µM)
MIC Enterococcus faecalis (ATCC 29212) [2]: 8 µg/mL (≈ 5.1 µM)
MIC Enterococcus faecalis (GC 2242) [2]: 16 µg/mL (≈ 10.2 µM)
MIC Enterococcus faecalis (GC 2691) [2]: 16 µg/mL (≈ 10.2 µM)
MIC Enterococcus faecalis (GC 3059) [2]: 16 µg/mL (≈ 10.2 µM)
MIC Enterococcus faecalis (GC 4552) [2]: 8 µg/mL (≈ 5.1 µM)
MIC Enterococcus faecalis (GC 4553) [2]: 8 µg/mL (≈ 5.1 µM)
MIC Enterococcus faecalis (GC 4554) [2]: 16 µg/mL (≈ 10.2 µM)
MIC Enterococcus faecalis (GC 6189) [2]: 16 µg/mL (≈ 10.2 µM)
MIC Enterococcus faecium (GC 2243) [2]: 8 µg/mL (≈ 5.1 µM)
MIC Enterococcus faecium (GC 4556) [2]: 16 µg/mL (≈ 10.2 µM)
MIC Enterococcus faecium (GC 4557) [2]: 2 µg/mL (≈ 1.28 µM)
MIC Enterococcus faecalis (GC 2242) ([2]; strain GC 2242): 16 µg/mL (≈ 10.2 µM)
MIC Enterococcus faecalis (GC 2691) ([2]; strain GC 2691): 16 µg/mL (≈ 10.2 µM)
MIC Enterococcus faecalis (GC 3059) ([2]; strain GC 3059): 16 µg/mL (≈ 10.2 µM)
MIC Staphylococcus aureus (ATCC 29213) ([3]; strain ATCC 29213): 8 µg/mL (≈ 5.1 µM)
MIC Staphylococcus aureus (GC 1131) [3]: 8 µg/mL (≈ 5.1 µM)
MIC Staphylococcus aureus (GC 3051) ([3]; strain GC 3051): 8 µg/mL (≈ 5.1 µM)
MIC Staphylococcus aureus (GC 3053) [3]: 8 µg/mL (≈ 5.1 µM)
MIC Staphylococcus aureus (GC 4541) [3]: 4 µg/mL (≈ 2.55 µM)
MIC Staphylococcus aureus (GC 4542) ([3]; strain GC 4542): 8 µg/mL (≈ 5.1 µM)
MIC Staphylococcus aureus-SMITH (GC 4543) [3]: 4 µg/mL (≈ 2.55 µM)
MIC Staphylococcus aureus (GC 4544) [3]: 8 µg/mL (≈ 5.1 µM)
MIC Staphylococcus aureus (GC 4545) [3]: 8 µg/mL (≈ 5.1 µM)
MIC Staphylococcus haemolyticus (GC 4546) [3]: 4 µg/mL (≈ 2.55 µM)
MIC Coagulase Negative Staphylococcus (GC 4547) [3]: 4 µg/mL (≈ 2.55 µM)
MIC Coagulase Negative Staphylococcus (GC 4548) [3]: 4 µg/mL (≈ 2.55 µM)
MIC Coagulase Negative Staphylococcus (GC 4549) [3]: 8 µg/mL (≈ 5.1 µM)
MIC Coagulase Negative Staphylococcus (GC 4551) [3]: 8 µg/mL (≈ 5.1 µM)
MIC Coagulase Negative Staphylococcus (GC 6257) [3]: 2 µg/mL (≈ 1.28 µM)
MIC Streptococcus agalactiae (GC 4564) [4]: 1 µg/mL (≈ 0.638 µM)
MIC Streptococcus pneumoniae (ATCC 6301) [4]: 1 µg/mL (≈ 0.638 µM)
MIC Streptococcus pneumoniae (GC 1894) [4]: 0.25 µg/mL (≈ 0.159 µM)
MIC Streptococcus pneumoniae (GC 4565) [4]: 2 µg/mL (≈ 1.28 µM)
MIC Streptococcus pyogenes (GC 4563) [4]: 0.5 µg/mL (≈ 0.319 µM)
MIC Streptococcus pneumoniae (ATCC 6301) ([4]; strain ATCC 6301): 1 µg/mL (≈ 0.638 µM)
MIC Streptococcus pneumoniae (GC 1894) ([4]; strain GC 1894): 0.25 µg/mL (≈ 0.159 µM)
MIC Streptococcus pyogenes (GC 4563) ([4]; strain GC 4563): 0.5 µg/mL (≈ 0.319 µM)
MIC Streptococcus agalactiae (GC 4564) ([4]; strain GC 4564): 1 µg/mL (≈ 0.638 µM)
MIC Streptococcus pneumoniae (GC 4565) ([4]; strain GC 4565): 2 µg/mL (≈ 1.28 µM)
Anatomical Pathology (Day 10), Heart [5]: 0
Anatomical Pathology (Day 10), Kidney [5]: ++
median effective dose (ED50), Staphylococcus aureus-SMITH (GC 4543) [6]: 2 mg/kg

CC(c1ccccc1)C1NC(=O)CNC(=O)C(CO)NC(=O)C(C(O)C2CN(Cc3ccc(C(C)(C)C)cc3)C(=N)N2C2OC(CO)C(O)C(O)C2O)NC(=O)C(C(O)C2CNC(=N)N2)NC(=O)C(Cc2ccc(OC3OC(CO)C(OC4OC5COC6(OC5C(O)C4O)C4CC5CC(C4)CC6C5)C(O)C3O)cc2)NC1=O (stereo not drawn) [Example 77]
MIC Escherichia coli (ATCC 25922) [1]: >128 µg/mL
MIC Escherichia coli (GC 4559) [1]: >128 µg/mL
MIC Escherichia coli (GC 4560) [1]: 4 µg/mL (≈ 2.54 µM)
MIC Enterococcus avium (GC 4558) ([2]; Enterococcus avium (GC 4558)): 4 µg/mL (≈ 2.54 µM)
MIC Enterococcus faecalis (ATCC 29212) [2, 7]: 16 µg/mL (≈ 10.2 µM)
MIC Enterococcus faecalis (GC 4552) [2, 8]: 16 µg/mL (≈ 10.2 µM)
MIC Enterococcus faecalis (GC 4553) [2, 9]: 8 µg/mL (≈ 5.08 µM)
MIC Enterococcus faecalis (GC 6189) [2, 10]: 16 µg/mL (≈ 10.2 µM)
MIC Enterococcus faecium (GC 2243) ([2]; Enterococcus faecium (GC 2243)): 8 µg/mL (≈ 5.08 µM)
MIC Enterococcus faecium (GC 4556) ([2]; Enterococcus faecium (GC 4556)): 16 µg/mL (≈ 10.2 µM)
MIC Enterococcus faecium (GC 4557) ([2]; Enterococcus faecium (GC 4557)): 1 to 2 µg/mL
MIC Enterococcus avium (GC 4558) [2]: 4 µg/mL (≈ 2.54 µM)
MIC Enterococcus faecalis (ATCC 29212) [2]: 16 µg/mL (≈ 10.2 µM)
MIC Enterococcus faecalis (GC 2242) [2]: 16 µg/mL (≈ 10.2 µM)
MIC Enterococcus faecalis (GC 2691) [2]: 16 µg/mL (≈ 10.2 µM)
MIC Enterococcus faecalis (GC 3059) [2]: 16 µg/mL (≈ 10.2 µM)
MIC Enterococcus faecalis (GC 4552) [2]: 16 µg/mL (≈ 10.2 µM)
MIC Enterococcus faecalis (GC 4553) [2]: 8 µg/mL (≈ 5.08 µM)
MIC Enterococcus faecalis (GC 4554) [2]: 16 to 32 µg/mL
MIC Enterococcus faecalis (GC 6189) [2]: 16 µg/mL (≈ 10.2 µM)
MIC Enterococcus faecium (GC 2243) [2]: 8 µg/mL (≈ 5.08 µM)
MIC Enterococcus faecium (GC 4556) [2]: 16 µg/mL (≈ 10.2 µM)
MIC Enterococcus faecium (GC 4557) [2]: 1 to 2 µg/mL
MIC Enterococcus faecalis (GC 2242) ([2]; strain GC 2242): 16 µg/mL (≈ 10.2 µM)
MIC Enterococcus faecalis (GC 2691) ([2]; strain GC 2691): 16 µg/mL (≈ 10.2 µM)
MIC Enterococcus faecalis (GC 3059) ([2]; strain GC 3059): 16 µg/mL (≈ 10.2 µM)
MIC Staphylococcus aureus (GC 1131) [3]: 16 µg/mL (≈ 10.2 µM)
MIC Staphylococcus aureus (GC 3053) [3]: 16 µg/mL (≈ 10.2 µM)
MIC Staphylococcus aureus (GC 4541) [3]: 4 to 8 µg/mL
MIC Staphylococcus aureus-SMITH (GC 4543) [3]: 8 µg/mL (≈ 5.08 µM)
MIC Staphylococcus aureus (GC 4544) [3]: 16 µg/mL (≈ 10.2 µM)
MIC Staphylococcus aureus (GC 4545) [3]: 8 µg/mL (≈ 5.08 µM)
MIC Staphylococcus haemolyticus (GC 4546) [3]: 4 to 8 µg/mL
MIC Coagulase Negative Staphylococcus (GC 4547) [3]: 4 µg/mL (≈ 2.54 µM)
MIC Coagulase Negative Staphylococcus (GC 4548) [3]: 4 µg/mL (≈ 2.54 µM)
MIC Coagulase Negative Staphylococcus (GC 4549) [3]: 4 to 8 µg/mL
MIC Coagulase Negative Staphylococcus (GC 4551) [3]: 8 µg/mL (≈ 5.08 µM)
MIC Coagulase Negative Staphylococcus (GC 6257) [3]: 2 µg/mL (≈ 1.27 µM)
MIC Streptococcus agalactiae (GC 4564) [4]: 1 µg/mL (≈ 0.635 µM)
MIC Streptococcus pneumoniae (ATCC 6301) [4]: 2 µg/mL (≈ 1.27 µM)
MIC Streptococcus pneumoniae (GC 1894) [4]: 0.25 to 0.5 µg/mL
MIC Streptococcus pneumoniae (GC 4565) [4]: 2 to 4 µg/mL
MIC Streptococcus pyogenes (GC 4563) [4]: 1 µg/mL (≈ 0.635 µM)
MIC Streptococcus pneumoniae (ATCC 6301) ([4]; strain ATCC 6301): 2 µg/mL (≈ 1.27 µM)
MIC Streptococcus pyogenes (GC 4563) ([4]; strain GC 4563): 1 µg/mL (≈ 0.635 µM)
MIC Streptococcus agalactiae (GC 4564) ([4]; strain GC 4564): 1 µg/mL (≈ 0.635 µM)
MIC Streptococcus pneumoniae (GC 4565) ([4]; strain GC 4565): 2 to 4 µg/mL
Anatomical Pathology (Day 10), Heart [5]: 0
Anatomical Pathology (Day 10), Kidney [5]: 0
median effective dose (ED50), Staphylococcus aureus-SMITH (GC 4543) [6]: 4 mg/kg
